Source: patent US10093627B2, “Tetrahydroquinoline derivatives and their use as Epac inhibitors” (Institut National de la Sante et de la Recherche Medicale …, priority 2012, dated 2018)

System: Iso-induced ANF-Luc transcriptional activation
Test: ANF-Luc transcriptional activation (Firefly luciferase assay) in rat neonatal cardiomyocytes
Assay type: cell-based
Conditions: Iso 10 μM, 8 h; FIG. 4A
Protocol: ANF and NFAT promoters were fused to the Firefly luciferase gene (ANF-Luc) (NFAT-Luc) to detect ANF and NFAT by Firefly Luciferase assay (see Materiel and Methods).
Rat neonatal cardiomyocytes were cotransfected with ANF-Luc and Epac1 or empty vector pcDNA3 as control. One day after transfection, cells were pretreated or not with CE3F4 (20 μM) for 30 min and stimulated or not with Iso (10 μM) for 8 h. Cells were then assayed for Luciferase activity. B) Iso-induced NFAT-Luc Transcriptional Activation is Blocked by CE3F4: Neonatal cardiomyocytes were transfected with NFAT-Luc. One day later cells were pretreated or not with CE3F4 (20 μM) for 30 min and stimulated or not with Iso (10 μM) for 8 h. The day after, cells were assayed for Luciferase activity.
Results were normalized to control for each experiment, and were expressed as means±S.E.M of at 4 (FIG. 4A) or 5 (FIG. 4B) independent experiments performed in triplicates.
The rat ANF promoter fused to the Firefly luciferase reporter gene (ANF-Luc) by Dr K. Knowlton, Epac and Rap1 plasmid construct (Epac1^WT) by Drs J. L. Bos and J. de Gunzburg, respectively. The Firefly luciferase reporter plasmid driven by four NFAT consensus binding sites (NFAT-Luc) was purchased from Stratagene. […]
Cells were lysed, and luminescence was detected using the Luciferase Assay System (Promega) according to the manufacturer's instructions with Tecan Infinite.

CC(C)NCC(O)c1ccc(O)c(O)c1 (stereo not shown) [Iso, Isoprenaline, reference compound]
Effect of agonist on ANF (ANF-Luc): increased ANF
